Results on 4 compounds are retold here after patent publication US20220380368A1, “SPIROCYCLIC ANDROGEN RECEPTOR PROTEIN DEGRADERS” (THE REGENTS OF THE UNIVERSITY OF MICHIGAN, priority 2019, published 2022).

As usually defined, the AUC(0-t) is the area under the concentration-time curve up to a stated or last time point. A word on the Cmax: it is the highest concentration seen after dosing. As a reminder, the Tmax is the time from dosing to the highest level.

Data set [1] in a line: Mouse PK studies after oral and IV dosing. Format: in vivo. To be noted: for F: PO 3 mg/kg vs IV 1 mg/kg; for AUC(0-t) / clearance / half-life / Vd / Cmax / Tmax: in vivo; for clearance: read-out: IV Cl (converted); for Vd: read-out: IV VSS. How it is done:
The pharmacokinetics of representative Compounds of the Disclosure were determined after oral and IV dosing at the concentrations indicated in mouse (Table 7). […] The vehicles used in these studies are either (i) 10% PEG400+90% PBS (adjusted to pH to 8.0 by 0.5 N NaOH); or (ii) 100% PEG200.

A further data set concerns the target T1, AR protein (Homo sapiens, UniProt P10275).
T1 construct: endogenous in cells; host or cells: VCaP
T1 sequence (P10275 1-920): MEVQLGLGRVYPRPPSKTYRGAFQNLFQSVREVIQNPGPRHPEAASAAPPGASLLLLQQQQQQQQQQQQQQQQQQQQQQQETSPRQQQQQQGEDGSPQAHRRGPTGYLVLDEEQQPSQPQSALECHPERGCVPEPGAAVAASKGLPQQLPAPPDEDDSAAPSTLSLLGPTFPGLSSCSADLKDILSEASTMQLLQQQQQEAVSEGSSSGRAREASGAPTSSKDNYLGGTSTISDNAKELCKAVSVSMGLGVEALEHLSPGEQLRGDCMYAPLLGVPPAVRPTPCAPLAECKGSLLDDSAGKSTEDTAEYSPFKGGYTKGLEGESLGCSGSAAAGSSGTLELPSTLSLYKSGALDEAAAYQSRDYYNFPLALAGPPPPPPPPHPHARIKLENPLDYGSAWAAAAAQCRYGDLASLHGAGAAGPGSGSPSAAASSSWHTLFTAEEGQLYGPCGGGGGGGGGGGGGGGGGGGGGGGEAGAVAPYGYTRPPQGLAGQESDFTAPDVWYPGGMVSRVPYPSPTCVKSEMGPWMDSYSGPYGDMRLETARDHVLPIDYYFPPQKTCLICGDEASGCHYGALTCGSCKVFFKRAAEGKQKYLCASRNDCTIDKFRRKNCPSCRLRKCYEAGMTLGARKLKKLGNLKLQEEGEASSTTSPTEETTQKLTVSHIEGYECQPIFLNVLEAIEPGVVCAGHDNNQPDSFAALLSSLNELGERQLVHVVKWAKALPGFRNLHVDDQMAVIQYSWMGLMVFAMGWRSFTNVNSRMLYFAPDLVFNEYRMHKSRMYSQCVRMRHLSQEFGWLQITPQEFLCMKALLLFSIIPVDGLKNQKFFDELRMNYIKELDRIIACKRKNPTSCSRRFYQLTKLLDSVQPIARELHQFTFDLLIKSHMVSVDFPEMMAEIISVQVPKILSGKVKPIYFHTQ
The data set is described as follows: Western blotting analysis of AR protein levels in VCaP cells, band quantification, DC50/DC90. Format: cell-based. The settings on record: VCaP cells, Table 6; read-out: VCaP DC50. Put shortly:
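VCaP cells treated with compounds, lysed in RIPA and probed for AR by Western blot with GAPDH loading control. Band intensities normalised to GAPDH; DC50 from curve fit, DC90 calculated from DC50 and Hill slope via four-parameter equation.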
For orientation: A western blot detects proteins with antibodies after separation by electrophoresis.

Where [2] appears, read: iv, 1 mg/kg, IV, dose 1 mg/kg, read-out: IV AUC(0 − t).
Where [3] appears, read: iv, 1 mg/kg, IV, dose 1 mg/kg, read-out: IV T1/2 (converted).
The mark [4] stands for this setting: po, 3 mg/kg, PO, dose 3 mg/kg, read-out: PO AUC(0 − t).
Setting [5] is: po, 3 mg/kg, PO, dose 3 mg/kg, read-out: PO T1/2 (converted).

Each structure is given as a SMILES string. Where two headings read alike, the source gives them in different places.

`C[C@H]1CC2(CCN(c3ccc(C(=O)N4CCN(CC5CCN(c6ccc7c(c6)C(=O)N(C6CCC(=O)NC6=O)C7=O)CC5)CC4)nn3)CC2)CN1c1ccc(C#N)c(Cl)c1` (stereo partly drawn) [Cpd. No. 491, 2-chloro-4-((3S)-8-(6-(4-((1-(2-(2,6-dioxopiperidin-3-yl)-1,3-dioxoisoindolin-5-yl)piperidin-4-yl)methyl)piperazine-1-carbonyl)pyridazin-3-yl)-3-methyl-2,8-diazaspiro[4.5]decan-2-yl)benzonitrile] registered a F in data set [1] of 34%. In addition, in data set [1] (setting [2]), the AUC(0-t) stood at 2640 ng·h/mL. In data set [1] (iv, 1 mg/kg, IV, dose 1 mg/kg), the clearance is 6 mL/min/kg and the Vd came to 2.09 L/kg. Also, the half-life in data set [1] (setting [3]) is 7.7 h. In data set [1] (po, 3 mg/kg), the concentration peaked (Cmax) at 789 ng/mL and the Tmax was 1 h. The AUC(0-t) in data set [1] (setting [4]) was 2710 ng·h/mL. Also, the half-life in data set [1] (setting [5]) was 5.7 h. Also, at AR protein, the DC50 was 1 to 10 nM.
For `C[C@H]1CC2(CCN(c3cnc(C(=O)N4CCC(CN5CCN(c6ccc7c(c6)C(=O)N(C6CCC(=O)NC6=O)C7=O)CC5)CC4)cn3)CC2)CN1c1ccc(C#N)c(Cl)c1` (stereo partly drawn) [Cpd. No. 492, 2-chloro-4-((3S)-8-(5-(4-((4-(2-(2,6-dioxopiperidin-3-yl)-1,3-dioxoisoindolin-5-yl)piperazin-1-yl)methyl)piperidine-1-carbonyl)pyrazin-2-yl)-3-methyl-2,8-diazaspiro[4.5]decan-2-yl)benzonitrile], the F in data set [1] was determined as 15%. Moreover, the AUC(0-t) in data set [1] (setting [2]) turned out to be 277 ng·h/mL. In data set [1] (iv, 1 mg/kg, IV, dose 1 mg/kg), the clearance was 54.5 mL/min/kg and the Vd amounted to 7.71 L/kg. Further, in data set [1] (setting [3]), the half-life is 3.3 h. Moreover, in data set [1] (po, 3 mg/kg), the Cmax was determined as 59 ng/mL and the time of peak concentration (Tmax) stood at 0.5 h. Further, in data set [1] (setting [4]), the AUC(0-t) stood at 123 ng·h/mL. Moreover, the half-life in data set [1] (setting [5]) is 2.1 h. Moreover, at AR protein, the DC50 is 1 to 10 nM.
The compound `C[C@H]1CC2(CCN(c3cnc(C(=O)N4CCC(CN5CCN(c6cc7c(cc6F)C(=O)N(C6CCC(=O)NC6=O)C7=O)CC5)CC4)cn3)CC2)CN1c1ccc(C#N)c(Cl)c1` (stereo partly drawn) [Cpd. No. 493, 2-chloro-4-((3S)-8-(5-(4-((4-(2-(2,6-dioxopiperidin-3-yl)-6-fluoro-1,3-dioxoisoindolin-5-yl)piperazin-1-yl)methyl)piperidine-1-carbonyl)pyrazin-2-yl)-3-methyl-2,8-diazaspiro[4.5]decan-2-yl)benzonitrile] gave a F in data set [1] of 25%. In data set [1] (setting [2]), the AUC(0-t) came out at 840 ng·h/mL. Moreover, in data set [1] (iv, 1 mg/kg, IV, dose 1 mg/kg), the clearance is 20.3 mL/min/kg and the Vd stood at 4.12 L/kg. Further, the half-life in data set [1] (setting [3]) is 4.9 h. For the same compound, in data set [1] (po, 3 mg/kg), the Cmax stood at 224 ng/mL and the Tmax was 0.7 h. Moreover, the AUC(0-t) in data set [1] (setting [4]) was 627 ng·h/mL. Also, in data set [1] (setting [5]), the half-life was 4.8 h. Also, the DC50 on AR protein was in the range of 1 to 10 nM.
`C[C@H]1CC2(CCN(c3cnc(C(=O)N4CCN(CC5CCN(c6ccc7c(c6)C(=O)N(C6CCC(=O)NC6=O)C7=O)CC5)CC4)cn3)CC2)CN1c1ccc(C#N)c(Cl)c1` (stereo partly drawn) [Cpd. No. 494, 2-chloro-4-((3S)-8-(5-(4-((1-(2-(2,6-dioxopiperidin-3-yl)-1,3-dioxoisoindolin-5-yl)piperidin-4-yl)methyl)piperazine-1-carbonyl)pyrazin-2-yl)-3-methyl-2,8-diazaspiro[4.5]decan-2-yl)benzonitrile]: the F in data set [1] stood at 9%. The values for the AUC(0-t) in data set [1] (setting [2]) and in data set [1] (setting [4]) were 180 ng·h/mL and 49 ng·h/mL, respectively. Further, in data set [1] (iv, 1 mg/kg, IV, dose 1 mg/kg), the clearance was 87.3 mL/min/kg. In addition, the results for the half-life in data set [1] (setting [3]) and in data set [1] (setting [5]) were 5.4 h and 2.4 h, respectively. Further, the Vd in data set [1] (iv, 1 mg/kg, IV, dose 1 mg/kg) turned out to be 16.9 L/kg. Further, the peak level in data set [1] (po, 3 mg/kg) (Cmax) was 36 ng/mL. Moreover, the Tmax in data set [1] (po, 3 mg/kg) came out at 0.5 h. Moreover, the DC50 at AR protein lay within 1 to 10 nM.
